Entries after “also recorded” stand apart in the source; their conditions may differ.
What was measured:
[1] = test system: Drosophila melanogaster; experiment: Gustatory assay (fructose preference, food colouring); type: in vivo; conditions: 1 hour feeding; for gustatory repellency (preference for repellent-treated sugar versus control-treated sugar): 35 mM fructose with 5 mM repellent vs 25 mM fructose control; for gustatory repellency compared with DEET: 5 mM repellent, FIG. 12
Description: The D. melanogaster assays served as a model for SWD repellency. Forty different aromatic amides were studied at a 25% concentration by weight in DMSO, and the fruit fly chemosensory behaviors in response thereto were characterized.
(§1) In the gustatory assay, the consumption of sugar (from a solution in a gel) treated at varying concentrations of the present repellent compounds was compared to the consumption of control-treated sugar. For the habituation assay, flies were tested over repeated exposures to the present repellent compounds to measure changes in behavioral preference for the compounds.
Flies were continuously monitored throughout their lifecycle. In doing so, 3- to 5-day-old flies (half male and half female) were selected and starved for 20 hours. Flies were then introduced to 96-well plates 200 with wells 210a-220vv that were alternately filled with two different sugar solutions, as shown in FIG. 8. Wells 210a-210vv were filled with 25 mM fructose in DMSO (as a control), colored with red food coloring, and wells 220a-220vv were filled with […] fructose mixed with 5 mM of the present insect repellent in DMSO, colored with blue food coloring. The food coloring is nontoxic, so it has no effect on preference. Using an established protocol (Montell, C., et al., Avoiding DEET through insect gustatory receptors. NIH Neuron 67(4), 2010, 555-561: doi:10.1016/j.neuron.2010.07.006), flies selected between the fructose control or fructose mixed with aromatic amide repellent. Tests were performed on at least one group of about 50 males and at least one group of 50 females. Flies were placed in the dark for 1 hour, then the food coloring in the fly's abdomen was visualized under a compound microscope. The color of the abdomen was noted, along with the intensity, providing a quantitative idea of how much sugar each fly consumed, and from which type of well (control vs. mixed with repellent). The flies were fed for one hour so that the amount of food coloring was significant enough to be visible. A preference index was made to define the amount of food coloring consumed and assess the degree of repellent avoidance via gustatory processes.
(§2) The different assays assigned results as follows. For the single-choice olfactory assay, the numbers of flies were counted according to (1) those that entered the trap, (2) those that stayed outside the trap and lived, and (3) those that died outside the trap. For the two-choice olfactory assay, the numbers of flies were counted according to (1) those that entered the control trap, (2) those that entered the trap containing the repellent, (3) those that stayed outside of both traps and lived, and (4) those that died outside the traps. For the gustatory assay, the numbers of flies were counted according to those that had (1) a red-colored abdomen, (2) a blue-colored abdomen, (3) a purple abdomen, and (4) no added color to their abdomen. A nonparametric Mann-Whitney U test was used to compare the statistical differences between assays using DEET and the same assays using one of the present repellents for all trials.

[2] = test system: Drosophila melanogaster; experiment: One-choice (single-trap) olfactory trap assay; type: in vivo; conditions: for repellency compared with DEET, one-choice trap assay: 25 μl of 25% by weight in DMSO on filter paper, 10% ACV attractant, 6 hours (FIG. 10) and 24 hours (FIG. 13); for repellency / fly death during the 6-hour screen: 6 hours; for fly death during the 6-hour screen: starved flies
Description: (§3) The D. melanogaster assays served as a model for SWD repellency. Forty different aromatic amides were studied at a 25% concentration by weight in DMSO, and the fruit fly chemosensory behaviors in response thereto were characterized. […]
(§4) Flies were monitored throughout their life cycle. Five-day-old flies (10 male and 10 females) were selected per assay, and starved for a predetermined length of time (e.g., 20 hours). After starvation, two different assays were used to study the olfactory related responses.
FIG. 7A is a diagram of a single-trap olfactory assay. Flies 105 were placed in a cylindrical chamber 100 containing a trap 110. The trap 110 was fashioned from an upturned 1.5 ml micro-centrifuge tube where the tapered end was trimmed away. A pipette tip 120 was cut to form a funnel and inserted into the bottom of the inverted micro-centrifuge tube 110. Then, filter paper 130 was placed between the pipette tip 120 and tip of micro-centrifuge tube 110. The pipette tip 120 was placed so that entering flies could not make physical contact with the filter paper 130. The filter paper 130 was placed in this manner so that when the filter paper 130 was treated with the repellent solution, the flies would only be able to smell at a distance and should be repelled even in the presence of an attractant.
A 25 μl sample of test compound at 25% concentration was applied to the filter paper 130 in order to provide the odor source. At the bottom of the trap 110, 125 μl of 10% apple cider vinegar (ACV) was placed as an attractant. Trials were conducted for 24 hours to visualize the number of flies 105 entering the trap 110. Typically, flies that entered the trap 110 contacted the liquid ACV and died in the ACV. Flies were counted and recorded at 4, 6, and 24 hours. No control other than DEET was used for this experiment, because it was a single trap, comparing the number of flies 105 repelled by the repellent versus the number of flies 105 interacting with the attractant (ACV).
as §2

[3] = test system: Drosophila melanogaster; experiment: Two-choice trap olfactory assay; type: in vivo; conditions: 6 hours; for trap preference (control trap versus repellent-treated trap): DMSO control vs 25 μl of 25% by weight in DMSO
Description: as §3, §4
FIG. 7B is a diagram of a 2-choice trap olfactory assay. Two ACV traps 110a-b were prepared as above, in a cylinder 150 from upturned 1.5 ml micro-centrifuge tubes with the tapered end trimmed away, and a pipette 120a-b inserted into the inverted micro-centrifuge tube. In the cylinder 150, one trap 110a was treated with 25 μl of DMSO (as a control) on the filter paper 135, and the other trap 110b with the 25 μl of the 25% by weight solution of the test compound in DMSO applied to the filter paper 130. 125 μl of 10% ACV, diluted with water, was placed in the bottom of the traps 110a-b. Both traps contained filter paper as prepared in the one-trap assay. All trials were screened for 24 hours, and the number of flies 105 in each trap was counted. Positions of the traps (i.e., left or right, relative to the location of the chamber 150 in the room) were randomized. The number of flies 105 in each trap 110a and 110b were counted and recorded at 4, 6 and 24 hours.
as §2

[4] = test system: Drosophila melanogaster; experiment: Habituation assay (prior exposure, then olfactory and gustatory screens); type: in vivo
Description: as §1
Flies were continuously monitored throughout their lifetime. In this assay, 3- to 5-day-old flies (70 male and 70 female) were selected and transferred to an empty fly food container 320 (FIG. 9). The polystyrene foam cap 310 was treated with 50 μL of 25% by weight of the present aromatic amide repellent in DMSO. A thin porous material 330 was placed around the treated cap 310, with a gap between the cap 310 and the material 330 so that the flies cannot touch the treated cap 310, but can only smell it. […] After the 20-hour period, the flies were screened in the olfactory assay and gustatory assays above. In the olfactory assay, the number of flies in the trap, the number of flies outside the trap, and the number of flies that died outside the trap were counted as described herein, and in the gustatory assay, the color of the flies' abdomens were determined and counted, as described herein.
as §2

[5] = molecular target: T1, Or83b (Drosophila melanogaster, UniProt Q9VNB5); experiment: Olfactory assays with receptor-modified (Or83b knockdown) flies; type: in vivo, fruit flies
T1 construct: endogenous in cells; host or cells: whole living fruit flies (behavioural olfactory assays)
T1 sequence (Q9VNB5 1-486): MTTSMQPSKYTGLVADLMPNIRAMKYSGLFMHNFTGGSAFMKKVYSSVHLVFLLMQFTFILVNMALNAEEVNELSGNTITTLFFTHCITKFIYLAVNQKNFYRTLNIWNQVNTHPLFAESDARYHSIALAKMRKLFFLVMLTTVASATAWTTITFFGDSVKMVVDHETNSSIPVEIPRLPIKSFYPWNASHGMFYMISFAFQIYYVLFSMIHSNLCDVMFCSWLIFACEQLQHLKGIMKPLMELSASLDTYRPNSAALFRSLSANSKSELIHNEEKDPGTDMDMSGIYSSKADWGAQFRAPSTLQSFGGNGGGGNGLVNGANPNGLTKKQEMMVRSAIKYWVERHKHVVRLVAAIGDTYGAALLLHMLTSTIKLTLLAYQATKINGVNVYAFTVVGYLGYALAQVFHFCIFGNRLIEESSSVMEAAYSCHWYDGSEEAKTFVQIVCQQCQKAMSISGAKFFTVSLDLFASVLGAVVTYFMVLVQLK
Description: (§5) The neurophysiological mechanisms of repellency were analyzed using receptors that are essential for DEET detection, Or83b and Gr33a. […] These receptors also play a role in the repellency of the most promising of the present aromatic amide compounds.

[6] = molecular target: T2, Gr33a (Drosophila melanogaster, UniProt Q9VKA5); experiment: Gustatory assay with receptor-modified (Gr33a knockdown) flies; type: in vivo, fruit flies
T2 construct: endogenous in cells; host or cells: whole living fruit flies (behavioural gustatory assay)
T2 sequence (Q9VKA5 1-475): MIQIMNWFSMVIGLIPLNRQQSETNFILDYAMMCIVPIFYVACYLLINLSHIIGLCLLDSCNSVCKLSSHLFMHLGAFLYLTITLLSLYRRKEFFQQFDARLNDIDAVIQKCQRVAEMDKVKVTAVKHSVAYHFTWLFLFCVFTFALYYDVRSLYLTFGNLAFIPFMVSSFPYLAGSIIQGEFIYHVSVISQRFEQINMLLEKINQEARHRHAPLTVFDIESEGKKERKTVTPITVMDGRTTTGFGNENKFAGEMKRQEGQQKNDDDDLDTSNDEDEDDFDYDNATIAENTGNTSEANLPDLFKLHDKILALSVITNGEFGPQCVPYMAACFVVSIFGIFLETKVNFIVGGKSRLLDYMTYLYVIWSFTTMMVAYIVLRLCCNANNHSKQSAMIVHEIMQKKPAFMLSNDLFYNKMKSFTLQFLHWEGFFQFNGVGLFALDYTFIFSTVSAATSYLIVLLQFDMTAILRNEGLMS
Description: as §5

[7] = one-choice trap, 25% concentration

SMILES	gustatory repellency (preference for repellent-treated sugar versus control-treated sugar) [1]	repellency compared with DEET, one-choice trap assay [2]	repellency [2, 7]	fly death during the 6-hour screen [2, 7]	participation in choosing either trap ([3]; 25% by weight)	trap preference (control trap versus repellent-treated trap) [3]	other results
Cc1cccc(C(=O)N2CCOCC2)c1 [Compound 1mD]	act as a gustatory repellent						
O=C(c1cccc(F)c1)N1CCCC1 [Compound 2mB, N-[m-fluorobenzoyl]pyrrolidine]		more effective than DEET	significant repellency	no fly death	less overall participation	preference for the control trap	aversion (no flies entering the single-choice trap) [2, 7]: 100%; ranking among repellents in the one-choice assay [2, 7]: most effective repellents; average number of flies that chose a trap in 6 hours ([3]; 25% by weight, 20 flies per assay): 4 flies; habituation of fruit flies, overall (olfactory and gustatory assays) ([4]; post-exposure): demonstrated habituation in at least one assay; repellency after prior exposure, gustatory assay ([4]; prior exposure 25% by weight, gustatory screen at 5 mM): significantly less repellency; repellency after prior exposure, one-choice trap olfactory assay ([4]; prior exposure to 25% by weight repellent for 20 hours, compared with earlier assay): worse at repelling insects after prior exposure; effectiveness with receptor-modified flies, one-choice trap olfactory assay ([5]; compared with assays with unmodified flies): significantly less effective; Or83b and Gr33a requirement for detection of the compound ([5]; fruit flies, olfactory assays): required; effectiveness as repellent with Or83b-modified flies above the knockdown temperature ([5]; olfactory assays, compared with unmodified flies): significantly less effective; preference of receptor-modified flies for the compound, olfactory assays ([5]; receptor-modified flies): much higher preference; effectiveness with receptor-modified flies, gustatory assay ([6]; compared with unmodified flies): significantly less effective; preference for repellent-treated food source post-knockdown, gustatory assay ([6]; post-knockdown): increased preference
O=C(c1cccc(C(F)(F)F)c1)N1CCCC1 [Compound 3mB]		more effective than DEET	significant repellency	no fly death	less overall participation	preference for the control trap	
O=C(c1cccc(C(F)(F)F)c1)N1CCCCC1 [Compound 3mC]	act as a gustatory repellent	more effective than DEET	significant repellency	no fly death	less overall participation	preference for the control trap	gustatory repellency compared with DEET [1]: significantly worse than DEET
O=C(c1cccc([N+](=O)[O-])c1)N1CCOCC1 [Compound 4mD]	act as a gustatory repellent						
COc1cccc(C(=O)N2CCCC2)c1 [Compound 5mB]	act as a gustatory repellent; also recorded: slightly lower preference				much higher mean participation	significantly greater preference for the control trap	gustatory repellency compared with DEET [1]: worse than DEET
COc1cccc(C(=O)N2CCCCC2)c1 [Compound 5mC]	act as a gustatory repellent	more effective than DEET					

Source: patent publication US12108762B2, “Methods of controlling crop pests using aromatic amide insect repellents, methods of making aromatic amide insect repellents, and novel aromatic amide insect repellents” (priority 2020, dated 2024)
